Test results reported in patent US6342537B1, “Gel for treatment of skin diseases and for disinfection of the skin” (priority 1994, dated 2002).
“And” between values parts separate entries of the source, which are not always exact repeats. Equal values may be shown once.

Tested on: herpes simplex virus (HSV) type 1
Test: Inactivation of herpes simplex virus in infected MRC-5 cells by alcohols (Example 25); as to HSV - CPE after 44 hours with the detecting cell-layer: key: 0: no CPE; 1: a few; 2: several; 3: all cells infected with HSV
Assay type: cell-based
Details: for HSV - CPE after 44 hours with the detecting cell-layer: duplicate wells
Protocol: Ethanol is an accepted disinfectant for viruses with an envelope. The purpose of this study was to measure the inactivating effect of “short-chained alcohols” on virus-infected cells.
Four 96 well plates with confluent MRC-5 cell were infected with herpes simplex virus (HSV) type 1. After appearance of 50% cytopathic effect (CPE), the culture medium was removed, and rows of 12 wells were treated with 25 μl/well of the alcohols or buffer after the following scheme: The first row with undiluted, and the following with 96%, 90%, 80%, 70%, 60% and 50% alcohol, respectively—all dilutions performed in buffer (PBS). To the last row was added buffer. After 2, 4, 8, 16 and 32 min, respectively, two wells in each row were emptied and the cells overlaid with PBS. The plate was then frozen at —80° C. Afterwards the wells were seeded with a detection layer of MRC-5 cells and the plates were placed at 37° C. for 44 hours. Virus surviving the treatment with alcohol was detected by the appearance of CPE, characteristic for HSV in the detection monolayer.

CCCO [Propanol]
HSV - CPE after 44 hours with the detecting cell-layer (50% alcohol in PBS, 2 min): 2
HSV - CPE after 44 hours with the detecting cell-layer (50% alcohol in PBS, 4 min): 3
HSV - CPE after 44 hours with the detecting cell-layer (50% alcohol in PBS, 8 min): 3 and 2
HSV - CPE after 44 hours with the detecting cell-layer (50% alcohol in PBS, 16 min): 3 and 2
HSV - CPE after 44 hours with the detecting cell-layer (50% alcohol in PBS, 32 min): 1
HSV - CPE after 44 hours with the detecting cell-layer (60% alcohol in PBS, 2 min): 1 and 2
HSV - CPE after 44 hours with the detecting cell-layer (60% alcohol in PBS, 4 min): 2 and 1
HSV - CPE after 44 hours with the detecting cell-layer (60% alcohol in PBS, 8 min): 1 and 0
HSV - CPE after 44 hours with the detecting cell-layer (60% alcohol in PBS, 16 min): 1 and 0
HSV - CPE after 44 hours with the detecting cell-layer (60% alcohol in PBS, 32 min): 0
HSV - CPE after 44 hours with the detecting cell-layer (70% alcohol in PBS, 2 min): 1 and 2
HSV - CPE after 44 hours with the detecting cell-layer (70% alcohol in PBS, 4 min): 1 and 0
HSV - CPE after 44 hours with the detecting cell-layer (70% alcohol in PBS, 8 min): 1 and 0
HSV - CPE after 44 hours with the detecting cell-layer (70% alcohol in PBS, 16 min): 0
HSV - CPE after 44 hours with the detecting cell-layer (70% alcohol in PBS, 32 min): 0
HSV - CPE after 44 hours with the detecting cell-layer (80% alcohol in PBS, 2 min): 0
HSV - CPE after 44 hours with the detecting cell-layer (80% alcohol in PBS, 4 min): 0
HSV - CPE after 44 hours with the detecting cell-layer (80% alcohol in PBS, 8 min): 0 and 1
HSV - CPE after 44 hours with the detecting cell-layer (80% alcohol in PBS, 16 min): 0
HSV - CPE after 44 hours with the detecting cell-layer (80% alcohol in PBS, 32 min): 0
HSV - CPE after 44 hours with the detecting cell-layer (90% alcohol in PBS, 2 min): 0
HSV - CPE after 44 hours with the detecting cell-layer (90% alcohol in PBS, 4 min): 0
HSV - CPE after 44 hours with the detecting cell-layer (90% alcohol in PBS, 8 min): 0
HSV - CPE after 44 hours with the detecting cell-layer (90% alcohol in PBS, 16 min): 0
HSV - CPE after 44 hours with the detecting cell-layer (90% alcohol in PBS, 32 min): 0
HSV - CPE after 44 hours with the detecting cell-layer (96% alcohol in PBS, 2 min): 0
HSV - CPE after 44 hours with the detecting cell-layer (96% alcohol in PBS, 4 min): 0
HSV - CPE after 44 hours with the detecting cell-layer (96% alcohol in PBS, 8 min): 0
HSV - CPE after 44 hours with the detecting cell-layer (96% alcohol in PBS, 16 min): 0
HSV - CPE after 44 hours with the detecting cell-layer (96% alcohol in PBS, 32 min): 0
inactivation of herpes simplex virus (in words) (HSV type 1 infected MRC-5 cells): able to inactivate herpes simplex virus even intracellular virus
HSV - CPE after 44 hours with the detecting cell-layer (alcohol undiluted, 2 min with alcohol): 0
HSV - CPE after 44 hours with the detecting cell-layer (alcohol undiluted, 4 min): 0
HSV - CPE after 44 hours with the detecting cell-layer (alcohol undiluted, 8 min): 0
HSV - CPE after 44 hours with the detecting cell-layer (alcohol undiluted, 16 min): 0
HSV - CPE after 44 hours with the detecting cell-layer (alcohol undiluted, 32 min): 0
